For one compound, Stability in plasma results are on record in patent US12486304B2, “Peptide ligand targeting carbonic anhydrase IX, peptide construct comprising same, and uses thereof” (priority 2022, dated 2025).

*1 amine or outer side, *2 acyl side, *3 side chain or, on linkers, in order; H or OH if unused. Where a SMILES comes first, the peptide text is derived from it. [ ]: non-standard residue; d: D form. X1 = NS(=O)(=O)c1ccc(-c2cn(CCCC[C@H](N[*:1])C(=O)[*:2])nn2)cc1

The conditions of the data set: human, 168 h.

Protocol: A solution of the peptide structure diluted to a final concentration of 50 μm in 1 mL of 100% pure human serum (Cat #S1, Merk) or plasma (Cat #70039.1, [sequence] Technologies) [or 100% pure mouse serum (Sigma, Cat #S7273) or plasma (Rockland, Cat #D508-06-0050)] was divided into 100 μL. Then, while stored at 37° C., analysis was performed once a day for 7 days using the LC-MS (1260 Infinity II, Infinity Lab LC/MSD, Aglient) equipped with the Agilent Poroshell 120 EC-C18 column (4.6×50 mm, 2.7 μm). Before injecting the sample into the LC, 100 μL of ACN was added to the serum or plasma solution containing the peptides, then put into the centrifuge and spun to settle the precipitate, and only 10 μL of the supernatant was used for analysis.

On to `C[C@H](O)[C@H]1NC(=O)[C@@H](Cc2ccccc2)NC(=O)[C@@H](Cc2c[nH]cn2)NC(=O)[C@@H](Cc2ccccc2)NC(=O)[C@@H](CCCNC(=N)N)NC(=O)[C@@H](CCCNC(=N)N)NC(=O)[C@H](CCCCn2cc(-c3ccc(S(N)(=O)=O)cc3)nn2)NC(=O)[C@H](CCC(N)=O)NC(=O)CNC(=O)[C@@H](Cc2c[nH]cn2)NC1=O` [No. 35] (cyclo(Q[X1][dR][dR][dF][dH][dF][dT][dH]G)), for which the Stability in plasma entry is “not degraded at all and was completely maintained even after 6 days”.
